Measured values as given in patent publication US20050026223A1, “Method and compositions for increasing bone mass” (The Board of Trustees of the University of Arkansas, priority 1999, published 2005).

Assays:
human ERα = target: T1, human ERα (Homo sapiens, UniProt P03372); experiment: Estrogen response element luciferase reporter in 293 cells overexpressing hERα; format: cell-based; conditions: 3 copies ERE-luciferase
T1 construct: expressed in transfected cells; host or cells: 293 (human embryonic kidney) cells
T1 sequence (P03372 1-595): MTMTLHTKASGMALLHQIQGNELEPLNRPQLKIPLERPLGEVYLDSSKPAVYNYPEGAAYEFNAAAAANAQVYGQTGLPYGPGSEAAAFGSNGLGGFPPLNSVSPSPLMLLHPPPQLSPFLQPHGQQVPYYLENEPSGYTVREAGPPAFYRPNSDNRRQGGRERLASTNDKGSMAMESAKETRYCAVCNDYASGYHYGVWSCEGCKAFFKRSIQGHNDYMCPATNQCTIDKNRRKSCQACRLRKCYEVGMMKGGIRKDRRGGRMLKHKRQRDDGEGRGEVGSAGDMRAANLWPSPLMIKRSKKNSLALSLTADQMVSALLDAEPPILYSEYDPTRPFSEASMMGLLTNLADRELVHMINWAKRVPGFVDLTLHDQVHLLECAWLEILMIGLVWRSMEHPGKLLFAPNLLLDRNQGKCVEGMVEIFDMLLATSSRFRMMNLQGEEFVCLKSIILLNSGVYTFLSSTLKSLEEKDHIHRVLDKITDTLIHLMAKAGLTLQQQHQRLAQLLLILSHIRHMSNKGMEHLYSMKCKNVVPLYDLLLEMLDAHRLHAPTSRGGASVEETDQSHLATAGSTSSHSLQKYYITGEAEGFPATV
Text: The human ERα was overexpressed in 293 cells lacking ERα along with a reporter construct containing 3 copies of an estrogen response element driving the luciferase gene. Light units were counted and normalized to coexpressed b-galactosidase activity to control for differences in transfection efficiency. Results represent percent stimulation compared to ERα transfected cells, but not treated with the two agents. Each bar represents mean of duplicate experiments +/−SEM. *p<0.001 vs. cells not exposed to the sterols.
In this experiment, hERα was overexpressed in 293 cells (which lack constitutive ERα) along with a reporter construct containing 3 copies of an estrogen response element driving the luciferase gene. Light units were counted and normalized to coexpressed β-galactosidase activity to control for differences in transfection efficiency.

[1] = Vertebral compression strength of fifth lumbar vertebrae (L5); format: in vivo, mice; conditions: 2000 ng/g body weight for 28 days, mean
Procedure: In a representative experiment of this sort, seven 4-5 month old female mice per group are screened twice for BMD in a four week period immediately prior to the initiation of the experiment to establish that peak adult bone mass has been attained. A subset of mice are then ovariectomized. Intact and ovariectomized mice are treated with vehicle, or 20, 200 or 2000 ng/g body weight estratriene-3-ol or another ANGEL compound. […] Ultimate load bearing properties of the fifth lumbar murine vertebrae (L5) is determined. This is done using a servohydraulic axial-torsional material testing machine (Model MTS 810 Bionx; MTS Systems Corp., Eden Prairie, Minn.) and a Lebow load cell (Eaton Products, Troy, Mich.). Data are recorded and analyzed using the LabVIEW software package and an acquisition/signal conditioning board (Model NB-MIO-16, National Instruments Corporation, Austin, Tex.). The L5 specimens that is used for ultimate load bearing is cleaned of surrounding soft tissue and the length and diameter recorded with a digital caliper at a resolution of 0.01 mm (Mitutoyo Model #500-196, Ace Tools, Ft. Smith, Ark.). […] Vertebrae are individually compressed between parallel loading platens along the cephalocaudad axis until failure and the ultimate load (in Newtons) and displacement (in mm) are recorded. […]

SMILES: C[C@@]12CCC[C@H]1[C@@H]1CCc3cc(O)ccc3[C@H]1CC2 [estratriene-3-ol]
- Transactivation of an estrogen response element through the estrogen receptor α (human ERα): did not transactivate
- Vertebral Compression ([1]; Ovx mice, p < 0.00001): 85.57 ± 10.17 Newtons
- Vertebral Compression ([1]; intact mice, p < 0.006): 96.26 ± 15.92 Newtons
